Source: ChEMBL document CHEMBL6096698, “Discovery of a Selective and Orally Bioavailable RET Degrader with Effectiveness in Various Mutations” (J Med Chem, 2025)
Calls of active or inactive are those of the source. The rule behind the calls is not given here.

Legend:
[1] = PROTAC activity at CRBN/KIF5B-RET (unknown origin) expressed in mouse BaF3 cells assessed as induction of RET degradation incubated for 24 hrs by immunoblot analysis; assay type: cell-based; conditions: BaF3, 24 h
[2] = system: BaF3; assay: Antiproliferative activity against mouse BaF3 cells stably expressing KIF5B-RET incubated for 72 hrs by CCK8 assay; assay type: functional, cell-based; conditions: BaF3, 72 h
[3] = system: BaF3; assay: Antiproliferative activity against mouse BaF3 cells stably expressing KIF5B-RET V804M mutant incubated for 72 hrs by CCK8 assay; assay type: functional, cell-based; conditions: BaF3, 72 h
[4] = system: BaF3; assay: Antiproliferative activity against mouse BaF3 cells stably expressing KIF5B-RET G810C mutant incubated for 72 hrs by CCK8 assay; assay type: functional, cell-based; conditions: BaF3, 72 h
[5] = system: BaF3; assay: Antiproliferative activity against mouse BaF3 cells stably expressing KIF5B-RET G810R mutant incubated for 72 hrs by CCK8 assay; assay type: functional, cell-based; conditions: BaF3, 72 h
[6] = system: BaF3; assay: Antiproliferative activity against mouse BaF3 cells stably expressing CCDC6-RET incubated for 72 hrs by CCK8 assay; assay type: functional, cell-based; conditions: BaF3, 72 h
[7] = system: BaF3; assay: Antiproliferative activity against mouse BaF3 cells stably expressing CCDC6-RET G810C mutant incubated for 72 hrs by CCK8 assay; assay type: functional, cell-based; conditions: BaF3, 72 h
[8] = system: BaF3; assay: Antiproliferative activity against mouse BaF3 cells stably expressing CCDC6-RET G810R mutant incubated for 72 hrs by CCK8 assay; assay type: functional, cell-based; conditions: BaF3, 72 h
[9] = system: A549; assay: Cytotoxicity against human A549 cells; assay type: functional, cell-based
[10] = system: MCF7; assay: Cytotoxicity against human MCF7 cells; assay type: functional, cell-based
[11] = biological target: T1, Proto-oncogene tyrosine-protein kinase receptor Ret (Homo sapiens, UniProt P07949); assay: Inhibition of RET (unknown origin) preincubated for 10 mins followed by substrate/ATP addition measured after 30 mins by HTRF assay
[12] = system: BaF3; assay: PROTAC activity at CRBN/KIF5B-RET (unknown origin) expressed in mouse BaF3 cells assessed as induction of RET degradation at 20 nM incubated for 8 to 24 hrs by immunoblot analysis; assay type: cell-based; conditions: time 8-24 hrs
[13] = system: BaF3; assay: PROTAC activity at CRBN/KIF5B-RET (unknown origin) expressed in mouse BaF3 cells assessed as induction of RET degradation at 10 nM incubated for 24 hrs by immunoblot analysis; assay type: cell-based
[14] = system: BaF3; assay: PROTAC activity at CRBN/KIF5B-RET (unknown origin) expressed in mouse BaF3 cells assessed as induction of RET degradation at 10 nM incubated for 24 hrs in presence of MG132 by immunoblot analysis; assay type: cell-based
[15] = system: BaF3; assay: PROTAC activity at CRBN/KIF5B-RET G810C mutant (unknown origin) expressed in mouse BaF3 cells assessed as decrease in Shc activation incubated for 24 hrs by immunoblot analysis; assay type: cell-based; conditions: dose 1-50 nM
[16] = biological target: T1, Proto-oncogene tyrosine-protein kinase receptor Ret; assay: Inhibition of RET (unknown origin) at 10 nM by kinase profiling analysis relative to control
[17] = Induction of apoptosis in mouse BaF3 cells stably expressing KIF5B-RET G810C mutant assessed as early apoptotic cells at 10 nM incubated for 48 hrs by Annexin V-FITC/PI staining based flow cytometry (reference value: 0.86 %); assay type: functional
[18] = Induction of apoptosis in mouse BaF3 cells stably expressing KIF5B-RET G810C mutant assessed as late apoptotic cells at 10 nM incubated for 48 hrs by Annexin V-FITC/PI staining based flow cytometry (reference value: 5.99 %); assay type: functional
[19] = Induction of apoptosis in mouse BaF3 cells stably expressing KIF5B-RET G810C mutant assessed as viable cells at 20 nM incubated for 48 hrs by Annexin V-FITC/PI staining based flow cytometry (reference value: 92.21 %); assay type: functional; conditions: read-out: Activity
[20] = Induction of apoptosis in mouse BaF3 cells stably expressing KIF5B-RET G810C mutant assessed as early apoptotic cells at 20 nM incubated for 48 hrs by Annexin V-FITC/PI staining based flow cytometry (reference value: 0.86 %); assay type: functional
[21] = Induction of apoptosis in mouse BaF3 cells stably expressing KIF5B-RET G810C mutant assessed as necrotic cells at 20 nM incubated for 48 hrs by Annexin V-FITC/PI staining based flow cytometry (reference value: 0.94 %); assay type: functional
[22] = Induction of apoptosis in mouse BaF3 cells stably expressing KIF5B-RET G810C mutant assessed as viable cells at 40 nM incubated for 48 hrs by Annexin V-FITC/PI staining based flow cytometry (reference value: 92.21 %); assay type: functional; conditions: read-out: Activity
[23] = Induction of apoptosis in mouse BaF3 cells stably expressing KIF5B-RET G810C mutant assessed as early apoptotic cells at 40 nM incubated for 48 hrs by Annexin V-FITC/PI staining based flow cytometry (reference value: 0.86 %); assay type: functional
[24] = Induction of apoptosis in mouse BaF3 cells stably expressing KIF5B-RET G810C mutant assessed as late apoptotic cells at 40 nM incubated for 48 hrs by Annexin V-FITC/PI staining based flow cytometry (reference value: 5.99 %); assay type: functional
[25] = Induction of apoptosis in mouse BaF3 cells stably expressing KIF5B-RET G810C mutant assessed as necrotic cells at 40 nM incubated for 48 hrs by Annexin V-FITC/PI staining based flow cytometry (reference value: 0.94 %); assay type: functional
[26] = Induction of apoptosis in mouse BaF3 cells stably expressing KIF5B-RET G810C mutant assessed as apoptotic cells at 40 nM incubated for 48 hrs by Annexin V-FITC/PI staining based flow cytometry (reference value: 6.7 %); assay type: functional
[27] = Volume of distribution at steady state in Sprague-Dawley rat at 1 mg/kg, iv measured for 24 hrs by LC-MS/MS analysis; assay type: ADME, organism-based; conditions: in vivo, read-out: Vdss
[28] = Clearance in Sprague-Dawley rat at 1 mg/kg, iv measured for 24 hrs by LC-MS/MS analysis; assay type: ADME, organism-based; conditions: in vivo
[29] = Half life in Sprague-Dawley rat at 10 mg/kg, po measured for 24 hrs by LC-MS/MS analysis; assay type: ADME, organism-based; conditions: in vivo
[30] = Tmax in Sprague-Dawley rat at 10 mg/kg, po measured for 24 hrs by LC-MS/MS analysis; assay type: ADME, organism-based; conditions: in vivo
[31] = Cmax in Sprague-Dawley rat at 10 mg/kg, po measured for 24 hrs by LC-MS/MS analysis; assay type: ADME, organism-based; conditions: in vivo
[32] = AUC (0 to infinity) in Sprague-Dawley rat at 10 mg/kg, po measured for 24 hrs by LC-MS/MS analysis; assay type: ADME, organism-based; conditions: in vivo
[33] = Oral bioavailability in Sprague-Dawley rat at 10 mg/kg measured for 24 hrs by LC-MS/MS analysis; assay type: ADME, organism-based; conditions: in vivo
[34] = Toxicity in BALB/c nu/nu mouse implanted with mouse BaF3 cells stably expressing KIF5B-RET G810C mutant assessed as body weight loss at 10 mg/kg, po qd treated for 10 days; assay type: organism-based; conditions: in vivo, 240 h, time 10 day
[35] = Toxicity in BALB/c nu/nu mouse implanted with mouse BaF3 cells stably expressing KIF5B-RET G810C mutant assessed as body weight loss at 10 mg/kg, po bid treated for 10 days; assay type: organism-based; conditions: in vivo, 240 h, time 10 day

T1 sequence (P07949 whole entry): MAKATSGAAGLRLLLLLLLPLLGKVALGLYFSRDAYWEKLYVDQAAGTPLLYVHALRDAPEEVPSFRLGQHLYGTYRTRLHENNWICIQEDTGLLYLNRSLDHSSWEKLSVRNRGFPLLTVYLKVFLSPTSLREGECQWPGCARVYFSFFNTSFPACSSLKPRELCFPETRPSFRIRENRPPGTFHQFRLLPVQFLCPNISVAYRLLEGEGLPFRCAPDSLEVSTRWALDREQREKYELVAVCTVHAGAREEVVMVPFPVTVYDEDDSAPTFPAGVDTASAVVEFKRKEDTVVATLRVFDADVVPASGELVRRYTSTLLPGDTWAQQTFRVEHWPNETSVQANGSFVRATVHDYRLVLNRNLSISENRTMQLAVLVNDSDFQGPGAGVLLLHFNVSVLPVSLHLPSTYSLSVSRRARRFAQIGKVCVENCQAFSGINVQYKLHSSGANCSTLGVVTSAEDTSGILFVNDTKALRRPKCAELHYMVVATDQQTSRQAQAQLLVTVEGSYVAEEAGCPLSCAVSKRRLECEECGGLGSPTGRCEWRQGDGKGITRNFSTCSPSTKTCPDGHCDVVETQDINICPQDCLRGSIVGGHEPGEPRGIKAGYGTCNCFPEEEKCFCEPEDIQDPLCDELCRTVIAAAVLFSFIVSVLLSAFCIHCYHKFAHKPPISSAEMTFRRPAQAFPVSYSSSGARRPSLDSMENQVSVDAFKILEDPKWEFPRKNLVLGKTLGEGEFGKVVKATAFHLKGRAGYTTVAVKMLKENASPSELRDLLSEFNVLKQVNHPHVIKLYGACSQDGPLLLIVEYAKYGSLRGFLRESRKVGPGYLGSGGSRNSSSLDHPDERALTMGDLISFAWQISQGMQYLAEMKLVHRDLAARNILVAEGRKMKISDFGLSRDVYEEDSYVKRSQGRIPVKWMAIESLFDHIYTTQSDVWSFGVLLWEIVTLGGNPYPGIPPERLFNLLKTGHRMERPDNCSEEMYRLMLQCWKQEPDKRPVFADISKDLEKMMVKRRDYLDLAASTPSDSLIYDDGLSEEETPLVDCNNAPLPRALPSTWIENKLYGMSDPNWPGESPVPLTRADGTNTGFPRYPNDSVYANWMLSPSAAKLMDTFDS

COc1ccc(CN2C3CC2CN(c2ccc(-c4cc(N5CCC(N6CCN(CCCC#Cc7cccc8c7CN(C7CCC(=O)NC7=O)C8=O)CC6)CC5)cn5ncc(C#N)c45)cn2)C3)cn1 (stereo not given)
DC50 [1]: 5.6 nM | IC50 [2]: 2.6 nM | IC50 [3]: 5.2 nM | IC50 [4]: 5.3 nM | IC50 [5]: 165 nM | IC50 [6]: 2.4 nM | IC50 [7]: 6.5 nM | IC50 [8]: 122 nM | IC50 [9]: > 5000 nM | IC50 [10]: > 5000 nM | IC50 [11]: 0.371 nM | Activity [12]: Active | Activity [13]: Active | Activity [14]: inactive | Activity [15]: Dose-dependent-effect | inhibition [16]: > 50% | Activity [17]: 18.33% | Activity [18]: 15.87% | viability at 0.02 µM [19]: 43.4% | Activity [20]: 38.21% | Activity [21]: 1.01% | viability at 0.04 µM [22]: 27.9% | Activity [23]: 56.22% | Activity [24]: 15.31% | Activity [25]: 0.54% | Activity [26]: 71.3% | Vd [27]: 31.9 L/kg | clearance [28]: 52.8 mL/min/kg | half-life [29]: 8.21 h | Tmax [30]: 2 h | Cmax [31]: 161 ng/mL | AUC(0-inf) [32]: 1190 ng·h/mL | bioavailability [33]: 40.3% | Activity [34]: Non-toxic | Activity [35]: Non-toxic
